Where “and” joins values, the source holds several entries; their conditions need not be identical. Identical values can stand only once.
Tests used:
SHMT2 = target: T1, SHMT2 (Homo sapiens, UniProt P34897); assay: SHMT2 coupled enzyme assay with MTHFD2 (NADH production); format: biochemical; conditions: mean (standard error), at least three replicate assays
T1 construct: N-terminal His6-tagged SHMT2 (residues 30–504); made in house; host or cells: E. coli Rosetta (DE3)pLysS
T1 sequence (P34897 30-504): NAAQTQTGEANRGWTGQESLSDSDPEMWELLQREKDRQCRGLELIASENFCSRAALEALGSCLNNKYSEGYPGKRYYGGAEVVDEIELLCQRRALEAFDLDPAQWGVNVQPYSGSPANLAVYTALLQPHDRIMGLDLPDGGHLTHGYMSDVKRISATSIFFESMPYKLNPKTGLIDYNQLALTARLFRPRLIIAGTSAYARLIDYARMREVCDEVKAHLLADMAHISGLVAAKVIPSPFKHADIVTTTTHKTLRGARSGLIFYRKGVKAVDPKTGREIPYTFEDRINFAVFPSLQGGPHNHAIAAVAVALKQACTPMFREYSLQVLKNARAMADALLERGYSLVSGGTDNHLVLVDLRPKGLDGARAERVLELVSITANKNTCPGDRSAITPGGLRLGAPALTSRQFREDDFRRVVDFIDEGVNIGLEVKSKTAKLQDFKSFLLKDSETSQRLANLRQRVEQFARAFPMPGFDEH
Procedure: N-terminal His6-tagged SHMT2 (residues 30–504) and full-length MTHFD2 were expressed in Rosetta (DE3)pLysS cells. One liter cultures were grown in LB media with 100 mg/mL ampicillin and 35 mg/mL chloramphenicol at 37 °C until the OD600 was 0.6. […] The cells were pelleted and resuspended in 25 mL of 25 mM Tris–HCl, pH 7.5, 300 mM NaCl, and 5 mM β-Me. To lyse the cells, 40 mg lysozyme and 8 U DNAse I were added followed by incubation on ice for 15 min. The cells were then lysed by emulsification.
Purification of His-SHMT2 and His-MTHFD2 was by Ni-affinity chromatography (above). For further purification of His-SHMT2, pyridoxal 5′-phosphate (PLP) was added (3-fold excess to His-SHMT2) followed by incubation for 16–18 h. Further purification was by size exclusion chromatography on a Superdex 200 16/60 column (GE Healthcare) with monitoring of PLP absorbance at 435 nm. Purified His-SHMT2 was stored in 20 mM sodium phosphate buffer, pH 7.5, 100 mM potassium chloride, 0.2 mM EDTA, and 5 mM β-ME. To further purify MTHFD2, size exclusion chromatography was performed using a Superdex 200 16/60 column (GE Healthcare). His-MTHFD2 was stored in 50 mM Tris–HCl buffer, pH 7.5, 250 mM sodium chloride, 5% glycerol, and 0.5 mM tris(2-chloroethyl) phosphate (TCEP).
Kinetic measurements were recorded in triplicate in a UV-transparent 96-well plate (Costar 3635) at 298 nm using a BioTek Synergy Neo2 Plate Reader. Initial slopes were graphed against inhibitor concentrations and fit to a three-parameter nonlinear regression to calculate IC50 values for each compound (GraphPad Prism 8.0). […] SHMT2 activity was assayed by monitoring NADH production with a coupled assay including 500 nM His-SHMT2 and 10 μM His-MTHFD2 (1:200 molar ratio His-SHMT2/His-MTHFD2). NADH production by His-MTHFD2 was monitored by fluorescence at 470 nm with excitation at 360 nm (Synergy Neo2 Biotek plate reader). Inhibition constants (Ki’s) were calculated from the IC50 values using the equation Ki = IC50/([S]/KM + 1) and the Km and substrate concentration for THF. The THF concentration in the reaction was 50 mM.

KB tumor cells = assay: Metabolite rescue of growth inhibition in KB cells; format: cell-based, human; conditions: glycine- and nucleoside-free media; for Protection from growth inhibition by adenosine: inhibitor up to 1000 nM, 60 μM adenosine alone
Procedure: Upper panel: schematic of C1 metabolism. Undefined abbreviations include the following: DHF, dihydrofolate; THF, tetrahydrofolate; FAICAR, formyl 5-aminoimidazole-4-carboxamide ribonucleotide; fGAR, formyl GAR; and 5,10-meTHF, 5,10-methylene tetrahydrofolate. Lower panels: KB cells were plated (4000 cells/well) in glycine-, nucleoside-, and folate-free RPMI 1640 medium with 10% dialyzed fetal bovine serum, antibiotics, L-glutamine, and 2 nM leucovorin over a range of inhibitor concentrations in the presence of adenosine (60 μM), glycine (160 μM), thymidine (10 μM), or AICA (320 μM). As shown, combined glycine plus adenosine or AICA was also tested to identify potential mitochondrial C1 targeting.[45] Cell proliferation was assayed with a fluorescence-based assay.[26] Data are representative of at least triplicate experiments (presented as mean values plus/minus standard errors). Methods are described in the Experimental Section, and additional metabolite rescue data for 4, 5, and 8–11 are presented in Figure S3 (Supporting Information).
Metabolite “rescue” experiments have been used to identify targeted pathways for novel antifolate inhibitors including de novo purine nucleotide and thymidylate biosynthesis (protection by adenosine and thymidine, respectively)[25]−[27],[29],[30],[32],[43],[45]−[47] and mitochondrial C1 metabolism (protection by glycine and adenosine).[45] To gain insights into the targeted pathways that contribute to the loss of KB tumor cell proliferation upon treatment with compounds 3–9, we tested the reversal of growth inhibition by the active compounds in Table 1 (up to 1000 nM) in glycine- and nucleoside-free media in the presence of 60 μM adenosine, 160 μM glycine, or 10 μM thymidine alone or with combined adenosine and glycine. The use of glycine- and nucleoside-free media for these experiments expands the ability to identify causal intracellular targets (including previously unrecognized mitochondrial targets[45]) that can be confirmed by targeted metabolomics and direct in vitro assays (below). […] The results of these experiments are shown in Figure 7 (lower panel) and in Figure S3 (Supporting Information).
AICA circumvents the first folate-dependent enzyme, GARFTase, and is directly metabolized to ZMP (AICAR), thus providing a substrate for AICARFTase[26],[32],[46] (Figure 7, upper panel). This distinguishes primary inhibition at GARFTase (protection by AICA) versus AICARFTase (incomplete protection by AICA) for inhibitors of de novo purine biosynthesis.[25]
Additional proliferation assays with metabolite rescue used KB cells to identify the targeted pathway and enzyme(s) in folate- and glycine-free RPMI1640, DFBS, 2 mM glutamine, and antibiotics. […] These assays have been previously described.[25],[26],[45]

[1] = tested on: SHMT2 (mitochondrial C1 metabolism) in KB tumor cells; assay: Targeted metabolomics flux analysis with [2,3,3-2H]serine in KB cells; format: cell-based, human; conditions: 0.1 μM compound, 250 μM [2,3,3-2H]serine, versus vehicle-treated cells
Excerpt: Serine is catabolized in the mitochondria via SHMT2, which converts serine to glycine and 5,10-methylene THF, the latter of which is metabolized by MTHFD2 to 10-CHOTHF and by MTHFD1L to formate (Figure 7).
The cells were processed for liquid chromatography–mass spectrometry (LC–MS) analysis of total serine and glycine, and deuterated serine (M + 3, M + 2, M + 1, and M + 0 serine, where M + n represents species with n deuterium atoms) and glycine (M + 1 and M + 0) isotopomers. The results are shown in Figure 8 and are compared to those for control (vehicle-treated) cells (labeled “N/A”).
Figure 8 Metabolomics flux analysis with [2,3,3-^2H]serine to assay mitochondrial C1 metabolism via SHMT2. (A) A schematic of [2,3,3-^2H]serine metabolism is shown. Heavy (^2H) atoms in serine (colored circles) are metabolized via SHMT2 initially followed by MTHFD2 and MTHFD1L to formate. (B, C) Total serine and glycine and the distribution of the serine (M + n, n = 0−3) and glycine (n = 0 or 1) isotopomers are shown. The loss of M + 3 serine corresponding to the metabolism of [2,3,3-^2H]serine to M + 1 glycine is a direct measure of SHMT2 activity in the cells.[45] Experimental methods are described in the Experimental Section. Results are shown as mean values plus/minus standard deviations (n = 3). *P < 0.05; **P < 0.01. […]
KB cells (1 × 10[6]) were seeded in each of three 60 mm dishes in folate-, serine-, and glycine-free RPMI1640 supplemented with 10% DFBS, 1% penicillin/streptomycin, 2 mM L-glutamine, 285 μM serine, 130 μM glycine, and 2 nM leucovorin. […] The targeted metabolites were quantitatively determined using the AB Sciex QTRAP 6500 LC–MS/MS system. […] Isotopomers were detected using multiple reaction monitoring (MRM) at the positive ionization mode. […] Absolute metabolite concentrations were calculated from calibration curves and then normalized to total protein concentrations measured from the postextraction pellet (solubilized in 0.5 N NaOH) using the Folin-phenol method.[53] […] To correct for multiple comparisons, adjusted p values were determined using Holm’s method.

[2] = tested on: PC43-10 CHO cells (expresses only human RFC); conditions: 96 h; mean (standard error); previously published; cited from earlier work
[3] = tested on: RT16 CHO cells (expresses only human FRα); conditions: 96 h; mean (standard error); previously published; cited from earlier work
[4] = tested on: D4 CHO cells (expresses only human FRβ); conditions: 96 h; mean (standard error); previously published; cited from earlier work
[5] = tested on: KB human tumor cells (RFC/FRα/PCFT); conditions: 96 h, no folic acid; mean (standard error); previously published; cited from earlier work
human GARFTase = target: T2, human GARFTase (Homo sapiens, UniProt P22102); set-up: method as in PMID 33773393, PMID 31289137, PMID 27439469; conditions: mean (standard error); previously reported; cited from earlier work
T2 construct: GARFTase (formyltransferase domain; residues 808–1010); made in house; host or cells: E. coli Rosetta (DE3)pLysS
T2 sequence (P22102 808-1010): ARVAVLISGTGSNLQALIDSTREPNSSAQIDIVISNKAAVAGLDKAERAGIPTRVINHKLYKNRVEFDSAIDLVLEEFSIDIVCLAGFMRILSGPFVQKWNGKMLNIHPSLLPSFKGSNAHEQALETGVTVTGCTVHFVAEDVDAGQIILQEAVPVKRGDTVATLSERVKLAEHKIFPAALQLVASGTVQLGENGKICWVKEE

Structure (SMILES)	Ki (SHMT2) [nM]	Protection from growth inhibition by glycine plus adenosine over adenosine alone (KB tumor cells; 160 μM glycine combined with 60 μM adenosine)	Increase in M + 3 serine [1]	IC50 [2] [nM]	IC50 [3]	IC50 [4] [nM]	Protection from growth inhibition by adenosine (KB tumor cells)	IC50 [5] [nM]	Ki (human GARFTase) [nM]
Nc1nc2sc(CCCCc3ccc(C(=O)N[C@@H](CCC(=O)O)C(=O)O)cc3)cc2c(=O)[nH]1 [Compound 2]	12400	substantially enhanced and was complete	2–4 fold	> 1000	9 nM	20			
Nc1nc2sc(CCCc3csc(C(=O)N[C@@H](CCC(=O)O)C(=O)O)c3)cc2c(=O)[nH]1 [Compound 10]				> 1000	0.4 nM and 0.44 nM	0.24	completely protective	1.48	
Nc1nc2sc(CCCCc3csc(C(=O)N[C@@H](CCC(=O)O)C(=O)O)c3)cc2c(=O)[nH]1 [Compound 11]				> 1000	5.62 nM	5.63	completely protective	6.85	> 150000
Nc1nc2[nH]cc(CCc3ccc(C(=O)N[C@@H](CCC(=O)O)C(=O)O)cc3)c2c(=O)[nH]1 [PMX, reference compound]					42 nM	60			

— publication PMC10186366 (ACS Pharmacology & Translational Science, 2023)
